{"source": "patent US20070009438A1", "about": "“Method for diagnosing diabetes type 2 using standardized mixed meal and calculated index values” (DiaMedica Inc., priority 2003, published 2007)", "test": "rapid insulin sensitivity test (RIST) in human volunteers before and after a standardized test meal", "type": "in vivo", "details": "50 mU/kg insulin bolus i.v., average from 5 subjects", "experimental": "Human volunteers were fasted overnight and submitted to a RIST. A stable glycemic baseline level was established by determining three consecutive stable venous glucose concentrations obtained at 5-minute intervals. […] Arterialized venous glucose concentrations were determined at 2-minute intervals and a variable glucose infusion pump was adjusted to maintain a constant blood glucose level. After completion of the first RIST index, a standardized meal consisting of a wheat-based biscuit containing 50 grams of carbohydrate was consumed within a 10-minute period. Venous glucose measurements were determined at 5-minute intervals until a new stable baseline was obtained whereupon a second RIST was carried out.\nIn FIG. 6, the difference between the results is plotted and is attributed to HISS action. […] Thus, the test meal provided a sufficient feeding signal to allow HISS release.", "data": [{"substance": "insulin", "values": [{"measurement": "RIST index (glucose disposal in response to the insulin bolus)", "setting": "human subjects after test meal (wheat-based biscuit, 50 grams of carbohydrate)", "value": 502, "unit": "mg/kg"}, {"measurement": "RIST index (glucose disposal in response to the insulin bolus)", "setting": "human subjects fasted overnight", "value": 180, "unit": "mg/kg"}]}]}
